From ChEMBL document CHEMBL3244287, “Adrenergic agents. 4. Substituted phenoxypropanolamine derivatives as potential beta-adrenergic agonists” (J Med Chem, 1977)
Active and inactive are the calls of the source. No cut-off for these calls is given here.

Key:
[1] = target: Beta-1 adrenergic receptor (Cavia porcellus) (UniProt B0FL73); experiment: Ratio of isoproterenol ED50 to compound ED50 for beta-1 adrenergic receptor in guinea pig atria assessed as increase in rate of contraction of spontaneously beating right atria
Sequence of Beta-1 adrenergic receptor (Cavia porcellus) (B0FL73 1-467): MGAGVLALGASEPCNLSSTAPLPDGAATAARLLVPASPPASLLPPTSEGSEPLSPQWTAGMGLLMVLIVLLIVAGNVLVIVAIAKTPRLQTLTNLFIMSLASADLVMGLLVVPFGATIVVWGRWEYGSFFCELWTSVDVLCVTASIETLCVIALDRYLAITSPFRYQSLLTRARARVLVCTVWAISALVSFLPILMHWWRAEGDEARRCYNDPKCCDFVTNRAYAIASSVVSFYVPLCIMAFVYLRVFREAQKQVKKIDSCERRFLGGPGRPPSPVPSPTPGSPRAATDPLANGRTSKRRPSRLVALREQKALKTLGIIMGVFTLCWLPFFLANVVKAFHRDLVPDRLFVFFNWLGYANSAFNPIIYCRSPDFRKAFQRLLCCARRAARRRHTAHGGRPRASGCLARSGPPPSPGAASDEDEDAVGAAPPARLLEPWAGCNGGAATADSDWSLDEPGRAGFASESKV

[2] = target: Beta-1 adrenergic receptor (Cavia porcellus) (UniProt B0FL73)
Canis familiaris [3] = experiment: Reduction of diastolic blood pressure in iv dosed anesthetized dog in presence of 2 mg/kg of propranolol, iv; type: functional, organism-based; set-up: dose 2 mg/kg; conditions: Canis lupus familiaris; Artery
Canis familiaris [4] = experiment: Reduction of heart rate in iv dosed anesthetized dog in presence of 2 mg/kg of propranolol, iv; type: functional, organism-based; set-up: dose 2 mg/kg; conditions: Canis lupus familiaris
[5] = target: Beta-1 adrenergic receptor (Cavia porcellus) (UniProt B0FL73); experiment: Ratio of N-tert-butyl-norepinephrine ED50 to compound ED50 for beta-1 adrenergic receptor in guinea pig atria assessed as increase in rate of contraction of spontaneously beating right atria
Cavia porcellus = organism: Cavia porcellus; experiment: Selectivity ratio of ED50 for beta-2 adrenergic receptor in guinea pig trachea over ED50 for beta-1 adrenergic receptor in guinea pig atria
[6] = tested on: Beta-2 adrenergic receptor (Cavia porcellus); experiment: Ratio of isoproterenol ED50 to compound ED50 for beta-2 adrenergic receptor in guinea pig trachea assessed as relaxation of spontaneously contracted muscle
Canis familiaris [7] = experiment: Reduction of diastolic blood pressure in iv dosed anesthetized dog; type: functional, organism-based; conditions: Canis lupus familiaris; Artery
[8] = target: Beta-2 adrenergic receptor (Cavia porcellus) (UniProt Q8K4Z4); conditions: Trachea
Sequence of Beta-2 adrenergic receptor (Cavia porcellus) (UniProt Q8K4Z4) (Q8K4Z4 whole entry, looked up): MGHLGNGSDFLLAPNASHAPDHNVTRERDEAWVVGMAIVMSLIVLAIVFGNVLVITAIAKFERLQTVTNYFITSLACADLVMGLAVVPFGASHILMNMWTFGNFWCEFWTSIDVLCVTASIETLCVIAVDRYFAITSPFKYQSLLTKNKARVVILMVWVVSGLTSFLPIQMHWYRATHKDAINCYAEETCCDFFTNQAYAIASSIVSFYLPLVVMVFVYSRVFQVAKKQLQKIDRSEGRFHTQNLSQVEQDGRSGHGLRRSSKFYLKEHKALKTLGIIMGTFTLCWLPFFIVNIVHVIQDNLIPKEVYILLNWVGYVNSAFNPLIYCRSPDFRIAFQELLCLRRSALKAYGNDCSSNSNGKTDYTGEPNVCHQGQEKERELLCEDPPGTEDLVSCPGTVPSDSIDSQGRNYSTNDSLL

[9] = target: Beta-1 adrenergic receptor (Cavia porcellus) (UniProt B0FL73); experiment: Antagonist activity at beta-1 adrenergic receptor in guinea pig atria assessed as inhibition of isoproterenol-induced increase in rate of contraction of spontaneously beating right atria at 6.3 x 10^-5 M
[10] = target: Beta-1 adrenergic receptor (Cavia porcellus) (UniProt B0FL73); experiment: Agonist activity at beta-1 adrenergic receptor in guinea pig atria assessed as increase in rate of contraction of spontaneously beating right atria at 4.8 x 10^-5 M
[11] = target: Beta-1 adrenergic receptor (Cavia porcellus) (UniProt B0FL73); experiment: Antagonist activity at beta-1 adrenergic receptor in guinea pig atria assessed as inhibition of isoproterenol-induced increase in rate of contraction of spontaneously beating right atria at 1 x 10^-3 M
[12] = target: Beta-2 adrenergic receptor (Cavia porcellus) (UniProt Q8K4Z4); experiment: Agonist activity at beta-2 adrenergic receptor in guinea pig trachea assessed as relaxation of spontaneously contracted muscle at 4.8 x 10^-5 M; set-up: scale not given: the % may be the effect or the level left
[13] = target: Beta-1 adrenergic receptor (Cavia porcellus) (UniProt B0FL73); experiment: Antagonist activity at beta-1 adrenergic receptor in guinea pig atria assessed as inhibition of isoproterenol-induced increase in rate of contraction of spontaneously beating right atria at 3 x 10^-7 M
[14] = target: Beta-1 adrenergic receptor (Cavia porcellus) (UniProt B0FL73); experiment: Agonist activity at beta-1 adrenergic receptor in guinea pig atria assessed as increase in rate of contraction of spontaneously beating right atria at 9 x 10^-5 M
[15] = target: Beta-2 adrenergic receptor (Cavia porcellus) (UniProt Q8K4Z4); experiment: Intrinsic activity at beta-2 adrenergic receptor in guinea pig trachea assessed as relaxation of spontaneously contracted muscle relative to papaverine
[16] = target: Beta-1 adrenergic receptor (Cavia porcellus) (UniProt B0FL73); experiment: Antagonist activity at beta-1 adrenergic receptor in guinea pig atria assessed as inhibition of isoproterenol-induced increase in rate of contraction of spontaneously beating right atria at 8.4 x 10^-5 M

Row | ED25 [2] | Ratio ED50 (Cavia porcellus) | ED50 [8] | SMILES | also measured
1 | 1.1 ×10⁻¹¹ M | 0.034 | 3.2 ×10⁻¹⁰ M | CC(C)(C)NCC(O)COc1ccc(O)c(O)c1 (centres undefined) | Ratio ED50 [1]: 310; Activity (Canis familiaris [3]): inactive; Activity (Canis familiaris [4]): inactive; Ratio ED50 [5]: 650; Ratio ED50 [6]: 22; Activity (Canis familiaris [7]): Active
2 | 5.4 ×10⁻⁷ M | 26 | 2.1 ×10⁻⁸ M | CC(C)(C)NCC(O)COc1cccc(O)c1 (centres undefined) | inhibition [9]: Active
3 |  |  | 7.1 nM | CC(C)NCC(O)c1ccc(O)c(O)c1 (centres undefined) | 
4 | 4.8 ×10⁻⁵ M |  | 4.8 ×10⁻⁵ M | CC(C)(C)NCC(O)COc1ccc(CS(C)(=O)=O)cc1 (centres undefined) | Activity [10]: 0%; inhibition [11]: 78%; Activity [12]: 0%
5 | 1200 nM | 182 | 6.6 nM | CC(C)(C)NCC(O)COc1ccc(O)c(NS(C)(=O)=O)c1 (centres undefined) | inhibition [13]: 44%
6 | 9 ×10⁻⁵ M | > 27 | 3400 nM | CC(C)(C)NCC(O)COc1ccc(NS(C)(=O)=O)c(O)c1 (centres undefined) | Activity [14]: 19%; Intrinsic activity [15]: 0.8
7 | 7.6 ×10⁻⁸ M | 2.9 | 2.6 ×10⁻⁸ M | CC(C)NCC(O)c1ccc(O)c(NS(C)(=O)=O)c1 (centres undefined) | 
8 | 5 ×10⁻⁸ M | 3.8 | 1.3 ×10⁻⁸ M | CC(C)(C)NCC(O)COc1ccc(O)cc1 (centres undefined) | inhibition [16]: Active

Row | SMILES | ED25 [2] | Ratio ED50 (Cavia porcellus) | ED50 [8] | also measured
9 | CC(C)NCC(O)c1cccc(O)c1 (centres undefined) | 3.7 ×10⁻⁸ M | 0.8 | 4.5 ×10⁻⁸ M | 
10 | CC(C)NCC(O)c1ccc(O)cc1 (centres undefined) | 7.7 ×10⁻⁸ M | 0.7 | 1.1 ×10⁻⁷ M | 
11 | CC(C)(C)NC[C@H](O)c1ccc(O)c(O)c1 | 7.1 nM | 5.5 | 1.3 nM | 
